Our source for the DC50 and Dmax values is patent publication US20250340552A1, “COMPOUNDS, COMPOSITIONS AND METHODS OF TREATING DISORDERS” (HOTSPOT THERAPEUTICS, INC., priority 2022, published 2025).

This test concerns the target T1, Cbl-B (Homo sapiens, UniProt Q13191).
T1 construct: MSD-Based Assay for Degradation of Cbl-B in THP-1 Cells; endogenous in cells; host or cells: THP-1 (title) / Jurkat (protocol text)
The experiment in a line: MSD-based assay for degradation of Cbl-B in THP-1 cells. The test is classed as cell-based. An outline of the steps: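 Reported Dmax bins are A >70%, B 50–70%, C 30–50% and D <30%, from an electrochemiluminescence (MSD) sandwich assay of Cbl-B in cell lysates. THP-1 cells were exposed to compounds for 24 hours before lysis.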

Where [1] appears, read: Cbl-B degradation, Jurkat cells seeded (heading: THP-1 cells), 24 hours incubation, MSD readout.
Where [2] appears, read: Cbl-B degradation, Jurkat cells seeded (heading: THP-1 cells), 24 hours incubation, MSD readout, read-out: Dmax.

Where two headings read alike, the source gives them in different places. Where only a bound is given, the exact number is not on record here.

T1 sequence (Q13191 whole entry): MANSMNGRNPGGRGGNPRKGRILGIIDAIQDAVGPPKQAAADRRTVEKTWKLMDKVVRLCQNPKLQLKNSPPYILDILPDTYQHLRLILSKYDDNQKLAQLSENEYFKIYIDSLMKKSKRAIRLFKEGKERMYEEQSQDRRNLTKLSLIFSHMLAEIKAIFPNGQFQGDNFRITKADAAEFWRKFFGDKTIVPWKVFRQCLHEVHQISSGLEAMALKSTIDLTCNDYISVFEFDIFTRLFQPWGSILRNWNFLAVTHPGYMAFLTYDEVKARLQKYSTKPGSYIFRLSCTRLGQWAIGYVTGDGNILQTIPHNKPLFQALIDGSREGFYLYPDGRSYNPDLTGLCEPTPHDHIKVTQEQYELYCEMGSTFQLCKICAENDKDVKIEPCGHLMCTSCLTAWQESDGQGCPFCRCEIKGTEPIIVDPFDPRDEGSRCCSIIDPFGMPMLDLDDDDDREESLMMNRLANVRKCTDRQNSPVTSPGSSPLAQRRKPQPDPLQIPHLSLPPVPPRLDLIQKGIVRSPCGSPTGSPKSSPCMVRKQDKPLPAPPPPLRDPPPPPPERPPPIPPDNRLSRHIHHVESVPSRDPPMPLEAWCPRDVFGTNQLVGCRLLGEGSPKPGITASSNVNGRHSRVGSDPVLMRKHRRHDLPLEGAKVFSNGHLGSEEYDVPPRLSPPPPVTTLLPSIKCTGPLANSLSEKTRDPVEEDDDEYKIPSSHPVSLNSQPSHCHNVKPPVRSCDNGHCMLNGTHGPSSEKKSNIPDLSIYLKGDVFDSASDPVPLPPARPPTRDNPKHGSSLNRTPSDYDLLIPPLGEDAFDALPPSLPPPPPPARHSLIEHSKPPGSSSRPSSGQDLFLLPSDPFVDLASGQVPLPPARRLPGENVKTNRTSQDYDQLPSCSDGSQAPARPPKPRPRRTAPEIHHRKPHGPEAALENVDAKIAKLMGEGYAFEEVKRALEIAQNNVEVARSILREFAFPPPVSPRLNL

Consider `Cn1cnnc1CC1(c2cccc(-n3cc4c(C(F)(F)F)cc(CN5CCC(CC(=O)N6CCC(CC7CCN(c8ccc9c(c8)CN([C@@H]8CCC(=O)NC8=O)C9=O)CC7)CC6)CC5)cn4c3=O)c2)COC1` (single isomer, unassigned) [Compound 257], for which the DC50 under setting [1] was in the range of 30 to 300 nM. The compound further came in with a Dmax (THP-1) of 50 to 70%.

Under setting [1], `Cn1cnnc1CC1(c2cccc(-n3cc4c(C(F)(F)F)cc(CN5CCC(CC(=O)N6CCC(CC7CCN(c8ccc9c(c8)CN([C@H]8CCC(=O)NC8=O)C9=O)CC7)CC6)CC5)cn4c3=O)c2)COC1` (single isomer, unassigned) [Compound 258] registered a DC50 of less than 30 nM. For the same compound, the Dmax (THP-1) was more than 70%.

Consider `Cn1cnnc1CC1(c2cccc(-n3cc4c(C(F)(F)F)cc(CN5CCC(CCN6CCC(CC7CCN(c8ccc9c(c8)CN([C@@H]8CCC(=O)NC8=O)C9=O)CC7)CC6)CC5)cn4c3=O)c2)COC1` (single isomer, unassigned) [Compound 259], for which, under setting [1], the DC50 lay in the range of 30 to 300 nM. The Dmax under setting [2] lay within 50 to 70%.

With `Cn1cnnc1CC1(c2cccc(-n3cc4c(C(F)(F)F)cc(CN5CCC[C@@H](OC6CCN(C(=O)c7ccc(N8CCN(c9ccc%10c(c9)CN([C@@H]9CCC(=O)NC9=O)C%10=O)CC8)cc7)CC6)C5)cn4c3=O)c2)COC1` (single isomer, unassigned) [Compound 263], the DC50 under setting [1] was less than 30 nM. Besides, the Dmax under setting [2] is more than 70%.

Regarding `Cn1cnnc1CC1(c2cccc(-n3cc4c(C(F)(F)F)cc(CN5CCC[C@@H](OC6CCN(C(=O)c7ccc(N8CCN(c9ccc%10c(c9)CN([C@H]9CCC(=O)NC9=O)C%10=O)CC8)cc7)CC6)C5)cn4c3=O)c2)COC1` (single isomer, unassigned) [Compound 264], under setting [1], the 50% degradation concentration (DC50) is less than 30 nM. Under setting [2], the Dmax is more than 70%.

Regarding `Cn1cnnc1CC1(c2cccc(-n3cc4c(C(F)(F)F)cc(CNCCOCCOCCNc5cccc6c5C(=O)N(C5CCC(=O)NC5=O)C6=O)cn4c3=O)c2)COC1` (stereo not drawn) [Compound 1], the DC50 under setting [1] is more than 10000 nM. Under setting [2], the Dmax is less than 30%.

In the case of `Cn1cnnc1CC1(c2cccc(-n3cc4c(C(F)(F)F)cc(CNCCOCCNc5cccc6c5C(=O)N(C5CCC(=O)NC5=O)C6=O)cn4c3=O)c2)COC1` (stereo not drawn) [Compound 2], under setting [1], the DC50 was more than 10000 nM. Also, under setting [2], the Dmax is less than 30%.

Regarding `Cn1cnnc1CC1(c2cccc(-n3cc4c(C(F)(F)F)cc(CN5CCC(OCCOCc6ccc(COCCNc7cccc8c7C(=O)N(C7CCC(=O)NC7=O)C8=O)cc6)CC5)cn4c3=O)c2)COC1` (stereo not drawn) [Compound 3], the DC50 under setting [1] fell in the range of 300 to 1000 nM. Further, the Dmax under setting [2] lay within 50 to 70%.

`Cn1cnnc1CC1(c2cccc(-n3cc4c(C(F)(F)F)cc(CNCCOCCOCc5ccc(COCCNc6cccc7c6C(=O)N(C6CCC(=O)NC6=O)C7=O)cc5)cn4c3=O)c2)COC1` (stereo not drawn) [Compound 4] yielded a DC50 under setting [1] of more than 10000 nM. For the same compound, the Dmax under setting [2] was less than 30%.

`Cn1cnnc1CC1(c2cccc(-n3cc4c(C(F)(F)F)cc(CN5CCC(OCCN6CCC(CN7CCN(c8cc9c(cc8F)C(=O)N(C8CCC(=O)NC8=O)C9=O)CC7)CC6)CC5)cn4c3=O)c2)COC1` (stereo not drawn) [Compound 7] returned a DC50 under setting [1] of more than 10000 nM. Further, the Dmax (THP-1) is less than 30%.

Consider `Cn1cnnc1CC1(c2cccc(-n3cc4c(C(F)(F)F)cc(CN5CCC(OCCOCc6ccc(CNc7cccc8c7C(=O)N(C7CCC(=O)NC7=O)C8=O)cc6)CC5)cn4c3=O)c2)COC1` (stereo not drawn) [Compound 12], for which the DC50 under setting [1] is more than 10000 nM. The Dmax under setting [2] was less than 30%.

Compound `Cn1cnnc1[C@@H](c1cccc(-n2cc3c(C(F)(F)F)cc(CN4CCC(OCc5ccc(COCCNc6cccc7c6C(=O)N(C6CCC(=O)NC6=O)C7=O)cc5)CC4)cn3c2=O)c1)C1CCC1` (stereo partly drawn) [Compound 13] had a DC50 under setting [1] of 1000 to 10000 nM. The Dmax under setting [2] is less than 30%.

`Cn1cnnc1[C@@H](c1cccc(-n2cc3c(C(F)(F)F)cc(CN4CCC(OCCOCc5ccc(CNc6cccc7c6C(=O)N(C6CCC(=O)NC6=O)C7=O)cc5)CC4)cn3c2=O)c1)C1CCC1` (stereo partly drawn) [Compound 14] came in with a DC50 under setting [1] of 1000 to 10000 nM. The Dmax under setting [2] is 30 to 50%.

In turn, `CN(CCN1CCC(CN2CCN(c3cc4c(cc3F)C(=O)N(C3CCC(=O)NC3=O)C4=O)CC2)CC1)Cc1cc(C(F)(F)F)c2cn(-c3cccc(C4(Cc5nncn5C)COC4)c3)c(=O)n2c1` (stereo not drawn) [Compound 15] displayed a DC50 under setting [1] of more than 10000 nM. The maximal degradation (Dmax) under setting [2] was less than 30%.

`Cn1cnnc1[C@@H](c1cccc(-n2cc3c(C(F)(F)F)cc(CN4CCC(OCCN5CCC(CN6CCN(c7cc8c(cc7F)C(=O)N(C7CCC(=O)NC7=O)C8=O)CC6)CC5)CC4)cn3c2=O)c1)C1CCC1` (stereo partly drawn) [Compound 16]: under setting [1], the DC50 is 1000 to 10000 nM. Further, the Dmax under setting [2] was 30 to 50%.

Regarding `Cn1cnnc1[C@@H](c1cccc(-n2cc3c(C(F)(F)F)cc(CN4CCC[C@H](OCCOCc5ccc(COCCNc6cccc7c6C(=O)N(C6CCC(=O)NC6=O)C7=O)cc5)C4)cn3c2=O)c1)C1CCC1` (stereo partly drawn) [Compound 17], under setting [1], the DC50 was 30 to 300 nM. Besides, under setting [2], the Dmax was in the range of 50 to 70%.

In turn, `Cn1cnnc1CC1(c2cccc(-n3cc4c(C(F)(F)F)cc(CN5CCC(OCCOCc6ccc(CN7CCN(c8cc9c(cc8F)C(=O)N(C8CCC(=O)NC8=O)C9=O)CC7)cc6)CC5)cn4c3=O)c2)COC1` (stereo not drawn) [Compound 18] yielded a DC50 under setting [1] of more than 10000 nM. In addition, the Dmax under setting [2] was less than 30%.

For the compound `Cn1cnnc1CC1(c2cccc(-n3cc4c(C(F)(F)F)cc(CN5CCC(OCCOCc6ccc(CN7CCN(c8cccc9c8C(=O)N(C8CCC(=O)NC8=O)C9=O)CC7)cc6)CC5)cn4c3=O)c2)COC1` (stereo not drawn) [Compound 19], under setting [1], the DC50 was more than 10000 nM. The Dmax under setting [2] was less than 30%.

`Cn1cnnc1[C@@H](c1cccc(-n2cc3c(C(F)(F)F)cc(CC4CCC[C@@H](OCCOCc5ccc(COCCNc6cccc7c6C(=O)N(C6CCC(=O)NC6=O)C7=O)cc5)C4)cn3c2=O)c1)C1CCC1` (stereo partly drawn) [Compound 20] showed a 50% degradation concentration (DC50) under setting [1] of 300 to 1000 nM. For the same compound, the Dmax under setting [2] lay in the range of 50 to 70%.

Turning to `Cn1cnnc1CC1(c2cccc(N3Cc4c(cc(CN5CCC(OCCOCc6ccc(COCCNc7cccc8c7C(=O)N(C7CCC(=O)NC7=O)C8=O)cc6)CC5)cc4C(F)(F)F)C3=O)c2)COC1` (stereo not drawn) [Compound 21], the DC50 under setting [1] lay within 1000 to 10000 nM. For the same compound, under setting [2], the greatest degradation seen (Dmax) lay in the range of 30 to 50%.

In turn, `Cn1cnnc1[C@@H](c1cccc(N2Cc3c(cc(CN4CCC(OCCOCc5ccc(COCCNc6cccc7c6C(=O)N(C6CCC(=O)NC6=O)C7=O)cc5)CC4)cc3C(F)(F)F)C2=O)c1)C1CCC1` (stereo partly drawn) [Compound 22] had a 50% degradation concentration (DC50) under setting [1] of 30 to 300 nM. Besides, under setting [2], the Dmax is more than 70%.

Under setting [1], `Cn1cnnc1[C@@H](c1cccc(-n2cc3c(C(F)(F)F)cc(CN4CCC(OCCOCc5ccc(CN6CCN(c7cc8c(cc7F)C(=O)N(C7CCC(=O)NC7=O)C8=O)CC6)cc5)CC4)cn3c2=O)c1)C1CCC1` (stereo partly drawn) [Compound 23] gave a DC50 of more than 10000 nM. Moreover, the Dmax under setting [2] is less than 30%.

With `Cn1cnnc1[C@@H](c1cccc(-n2cc3c(C(F)(F)F)cc(CN4CCC(OCCOCc5ccc(CN6CCN(c7cccc8c7C(=O)N(C7CCC(=O)NC7=O)C8=O)CC6)cc5)CC4)cn3c2=O)c1)C1CCC1` (stereo partly drawn) [Compound 24], the DC50 under setting [1] is more than 10000 nM. Also, the Dmax under setting [2] was less than 30%.

Turning to `Cn1cnnc1CC1(c2cccc(-n3cc4c(C(F)(F)F)cc(CN5CCC(OCCN6CCC(CN7CCCN(c8ccc9c(c8)CN(C8CCC(=O)NC8=O)C9=O)CC7)CC6)CC5)cn4c3=O)c2)COC1` (stereo not drawn) [Compound 25], the DC50 under setting [1] was 300 to 1000 nM. For the same compound, the Dmax under setting [2] fell in the range of 30 to 50%.

Consider `Cn1cnnc1[C@@H](c1cccc(-n2cc3c(C(F)(F)F)cc(CN4CCC(COCc5ccc(CN6CCN(c7cccc8c7C(=O)N(C7CCC(=O)NC7=O)C8=O)CC6)cc5)CC4)cn3c2=O)c1)C1CCC1` (stereo partly drawn) [Compound 28], for which the DC50 under setting [1] is more than 10000 nM. Under setting [2], the Dmax is less than 30%.

The compound `Cn1cnnc1[C@@H](c1cccc(-n2cc3c(C(F)(F)F)cc(CN4CCC(CN5CCC(CN6CCN(c7cc8c(cc7F)C(=O)N(C7CCC(=O)NC7=O)C8=O)CC6)CC5)CC4)cn3c2=O)c1)C1CCC1` (stereo partly drawn) [Compound 29] had a DC50 under setting [1] of more than 10000 nM. The Dmax under setting [2] was less than 30%.

Turning to `Cn1cnnc1[C@@H](c1cccc(-n2cc3c(C(F)(F)F)cc(CN4CCC(C(=O)N5CCC(CN6CCN(c7cc8c(cc7F)C(=O)N(C7CCC(=O)NC7=O)C8=O)CC6)CC5)CC4)cn3c2=O)c1)C1CCC1` (stereo partly drawn) [Compound 30], the 50% degradation concentration (DC50) under setting [1] is more than 10000 nM. Further, the Dmax under setting [2] is less than 30%.

Compound `Cn1cnnc1[C@@H](c1cccc(-n2cc3c(C(F)(F)F)cc(CN4CCC[C@@H](OCCOCc5ccc(COCCNc6cccc7c6C(=O)N(C6CCC(=O)NC6=O)C7=O)cc5)CC4)cn3c2=O)c1)C1CCC1` (stereo partly drawn) [Compound 31] had a DC50 under setting [1] of 30 to 300 nM. Also, under setting [2], the Dmax is 50 to 70%.

The compound `Cn1cnnc1[C@@H](c1cccc(-n2cc3c(C(F)(F)F)cc(CN4CCC[C@H](OCCOCc5ccc(COCCNc6cccc7c6C(=O)N(C6CCC(=O)NC6=O)C7=O)cc5)CC4)cn3c2=O)c1)C1CCC1` (stereo partly drawn) [Compound 32] yielded a DC50 under setting [1] of 30 to 300 nM. In addition, under setting [2], the Dmax was 30 to 50%.

Turning to `CN(CCOC1CCN(Cc2cc(C(F)(F)F)c3cn(-c4cccc([C@H](c5nncn5C)C5CCC5)c4)c(=O)n3c2)CC1)C(=O)c1ccc(N2CCN(c3cccc4c3C(=O)N(C3CCC(=O)NC3=O)C4=O)CC2)cc1` (stereo partly drawn) [Compound 33], the DC50 under setting [1] was more than 10000 nM. In addition, the Dmax under setting [2] was less than 30%.

With `CN(CCOC1CCN(Cc2cc(C(F)(F)F)c3cn(-c4cccc([C@H](c5nncn5C)C5CCC5)c4)c(=O)n3c2)CC1)C(=O)c1ccc(N2CCN(c3ccc4c(c3)CN([C@H]3CCC(=O)NC3=O)C4=O)CC2)cc1` [Compound 34], the DC50 under setting [1] lay within 30 to 300 nM. Under “THP-1”, this compound came in with a Dmax of more than 70%.

`CN(CCOC1CCN(Cc2cc(C(F)(F)F)c3cn(-c4cccc([C@H](c5nncn5C)C5CCC5)c4)c(=O)n3c2)CC1)C(=O)c1ccc(N2CCN(c3ccc4c(c3)CN([C@@H]3CCC(=O)NC3=O)C4=O)CC2)cc1` [Compound 35] had a DC50 under setting [1] of 300 to 1000 nM. Moreover, under setting [2], the Dmax lay within 50 to 70%.

Compound `Cn1cnnc1CC1(c2cccc(-n3cc4c(C(F)(F)F)cc(CN5CCC(OCCNc6cccc7c6C(=O)N(C6CCC(=O)NC6=O)C7=O)CC5)cn4c3=O)c2)COC1` (stereo not drawn) [Compound 36] came in with a DC50 under setting [1] of 1000 to 10000 nM. Further, the Dmax under setting [2] was less than 30%.
